US8748415B2 (priority 2011, dated 2014)

Test system: recombinant NL4-3 virus (Renilla luciferase in nef, Gag P373S)
Experiment: HIV cell culture assay (luciferase activity in MT-2 cells infected with NLRluc recombinant virus)
Type: cell-based
Conditions: NL43, MT-2 cells infected 4-5 days with NLRluc recombinant virus
Method in brief: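 MT-2 cells in RPMI/10% FBS were infected with recombinant NL4-3 (NLRluc), produced by 293T transfection and titered in MT-2 by luciferase. Serial inhibitor dilutions were present throughout a 4–5 day infection. Antiviral activity was quantified as Renilla luciferase signal via a modified Dual Luciferase read.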

| Structure (SMILES) | EC50 (class symbol) | EC50 (numeric value) |
| --- | --- | --- |
| C=C(C)[C@@H]1CC[C@]2(CN)CC[C@]3(C)[C@H](CC[C@@H]4[C@@]5(C)CC=C(c6ccc(C(=O)O)cc6)C(C)(C)[C@@H]5CC[C@]43C)[C@@H]12 [Example 174, 4-((1R,3aS,5aR,5bR,7aR,11aS,11bR,13aR,13bR)-3a-(aminomethyl)-5a,5b,8,8,11a-pentamethyl-1-(prop-1-en-2-yl)-2,3,3a,4,5,5a,5b,6,7,7a,8,11,11a,11b,12,13,13a,13b-octadecahydro-1H-cyclopenta[a]chrysen-9-yl)benzoic acid] | < 100 nM | – |
| C=C(C)[C@@H]1CC[C@]2(CN(CCN(C)C)C(=O)CCC(=O)O)CC[C@]3(C)[C@H](CC[C@@H]4[C@@]5(C)CC=C(c6ccc(C(=O)O)cc6)C(C)(C)[C@@H]5CC[C@]43C)[C@@H]12 [Example 13, 4-((1R,3aS,5aR,5bR,7aR,11aS,11bR,13aR,13bR)-3a-((3-carboxy-N-(2-(dimethylamino)ethyl)propanamido)methyl)-5a,5b,8,8,11a-pentamethyl-1-(prop-1-en-2-yl)-2,3,3a,4,5,5a,5b,6,7,7a,8,11,11a,11b,12,13,13a,13b-octadecahydro-1H-cyclopenta[a]chrysen-9-yl)benzoic acid] | < 100 nM | – |
| C=C(C)[C@@H]1CC[C@]2(CNCCc3ccc(C(=O)O)cc3)CC[C@]3(C)[C@H](CC[C@@H]4[C@@]5(C)CC=C(c6ccc(C(=O)O)cc6)C(C)(C)[C@@H]5CC[C@]43C)[C@@H]12 [Example 47, 4-((1R,3aS,5aR,5bR,7aR,11aS,11bR,13aR,13bR)-3a-((4-carboxyphenethylamino)methyl)-5a,5b,8,8,11a-pentamethyl-1-(prop-1-en-2-yl)-2,3,3a,4,5,5a,5b,6,7,7a,8,11,11a,11b,12,13,13a,13b-octadecahydro-1H-cyclopenta[a]chrysen-9-yl)benzoic acid] | < 100 nM | – |
| C=C(C)[C@@H]1CC[C@]2(CNCCCO)CC[C@]3(C)[C@H](CC[C@@H]4[C@@]5(C)CC=C(c6ccc(C(=O)O)cc6)C(C)(C)[C@@H]5CC[C@]43C)[C@@H]12 [Example 69, 4-((1R,3aS,5aR,5bR,7aR,11aS,11bR,13aR,13bR)-3a-((3-hydroxypropylamino)methyl)-5a,5b,8,8,11a-pentamethyl-1-(prop-1-en-2-yl)-2,3,3a,4,5,5a,5b,6,7,7a,8,11,11a,11b,12,13,13a,13b-octadecahydro-1H-cyclopenta[a]chrysen-9-yl)benzoic acid] | < 100 nM | – |
| C=C(C)[C@@H]1CC[C@]2(CNCCCN3CCCCC3)CC[C@]3(C)[C@H](CC[C@@H]4[C@@]5(C)CC=C(c6ccc(C(=O)O)cc6)C(C)(C)[C@@H]5CC[C@]43C)[C@@H]12 [Example 72, 4-((1R,3aS,5aR,5bR,7aR,11aS,11bR,13aR,13bR)-5a,5b,8,8,11a-pentamethyl-3a-((3-(piperidin-1-yl)propylamino)methyl)-1-(prop-1-en-2-yl)-2,3,3a,4,5,5a,5b,6,7,7a,8,11,11a,11b,12,13,13a,13b-octadecahydro-1H-cyclopenta[a]chrysen-9-yl)benzoic acid] | < 100 nM | – |
| C=C(C)[C@@H]1CC[C@]2(CNCCCN3C(=O)CCCC3=O)CC[C@]3(C)[C@H](CC[C@@H]4[C@@]5(C)CC=C(c6ccc(C(=O)O)cc6)C(C)(C)[C@@H]5CC[C@]43C)[C@@H]12 [Example 80, 4-((1R,3aS,5aR,5bR,7aR,11aS,11bR,13aR,13bR)-3a-((3-(2,6-dioxopiperidin-1-yl)propylamino)methyl)-5a,5b,8,8,11a-pentamethyl-1-(prop-1-en-2-yl)-2,3,3a,4,5,5a,5b,6,7,7a,8,11,11a,11b,12,13,13a,13b-octadecahydro-1H-cyclopenta[a]chrysen-9-yl)benzoic acid] | < 100 nM | – |
| C=C(C)[C@@H]1CC[C@]2(CN3CCS(=O)(=O)CC3)CC[C@]3(C)[C@H](CC[C@@H]4[C@@]5(C)CC=C(c6ccc(C(=O)O)cc6)C(C)(C)[C@@H]5CC[C@]43C)[C@@H]12 [Example 168, 4-((1R,3aS,5aR,5bR,7aR,11aS,11bR,13aR,13bR)-3a-((1,1-dioxido-4-thiomorpholinyl)methyl)-1-isopropenyl-5a,5b,8,8,11a-pentamethyl-2,3,3a,4,5,5a,5b,6,7,7a,8,11,11a,11b,12,13,13a,13b-octadecahydro-1H-cyclopenta[a]chrysen-9-yl)benzoic acid] | < 100 nM | – |
| C=C(C)[C@@H]1CC[C@]2(CNCCCN3CCNC(=O)C3)CC[C@]3(C)[C@H](CC[C@@H]4[C@@]5(C)CC=C(c6ccc(C(=O)O)cc6)C(C)(C)[C@@H]5CC[C@]43C)[C@@H]12 [Example 23, 4-((1R,3aS,5aR,5bR,7aR,11aS,11bR,13aR,13bR)-5a,5b,8,8,11a-pentamethyl-3a-((3-(3-oxopiperazin-1-yl)propylamino)methyl)-1-(prop-1-en-2-yl)-2,3,3a,4,5,5a,5b,6,7,7a,8,11,11a,11b,12,13,13a,13b-octadecahydro-1H-cyclopenta[a]chrysen-9-yl)benzoic acid] | < 100 nM | – |
| C=C(C)[C@@H]1CC[C@]2(CN(C)CCS(=O)(=O)N3CCN(C)CC3)CC[C@]3(C)[C@H](CC[C@@H]4[C@@]5(C)CC=C(c6ccc(C(=O)O)cc6)C(C)(C)[C@@H]5CC[C@]43C)[C@@H]12 [Example 44, 4-((1R,3aS,5aR,5bR,7aR,11aS,11bR,13aR,13bR)-5a,5b,8,8,11a-pentamethyl-3a-((methyl(2-(4-methylpiperazin-1-ylsulfonyl)ethyl)amino)methyl)-1-(prop-1-en-2-yl)-2,3,3a,4,5,5a,5b,6,7,7a,8,11,11a,11b,12,13,13a,13b-octadecahydro-1H-cyclopenta[a]chrysen-9-yl)benzoic acid] | – | 20 nM |
| C=C(C)[C@@H]1CC[C@]2(CN3CCOC3=O)CC[C@]3(C)[C@H](CC[C@@H]4[C@@]5(C)CC=C(c6ccc(C(=O)O)cc6)C(C)(C)[C@@H]5CC[C@]43C)[C@@H]12 [Example 182, 4-((1R,3aS,5aR,5bR,7aR,11aS,11bR,13aR,13bR)-5a,5b,8,8,11a-pentamethyl-3a-((2-oxooxazolidin-3-yl)methyl)-1-(prop-1-en-2-yl)-2,3,3a,4,5,5a,5b,6,7,7a,8,11,11a,11b,12,13,13a,13b-octadecahydro-1H-cyclopenta[a]chrysen-9-yl)benzoic acid] | < 100 nM | – |
| C=C(C)[C@@H]1CC[C@]2(CNCC3(CN4CCCC4)CC3)CC[C@]3(C)[C@H](CC[C@@H]4[C@@]5(C)CC=C(c6ccc(C(=O)O)cc6)C(C)(C)[C@@H]5CC[C@]43C)[C@@H]12 [Example 66, 4-((1R,3aS,5aR,5bR,7aR,11aS,11bR,13aR,13bR)-5a,5b,8,8,11a-pentamethyl-1-(prop-1-en-2-yl)-3a-(((1-(pyrrolidin-1-ylmethyl)cyclopropyl)methylamino)methyl)-2,3,3a,4,5,5a,5b,6,7,7a,8,11,11a,11b,12,13,13a,13b-octadecahydro-1H-cyclopenta[a]chrysen-9-yl)benzoic acid] | < 100 nM | – |
| C=C(C)[C@@H]1CC[C@]2(CN(CCN(C)C)C(=O)CC(=O)O)CC[C@]3(C)[C@H](CC[C@@H]4[C@@]5(C)CC=C(c6ccc(C(=O)O)cc6)C(C)(C)[C@@H]5CC[C@]43C)[C@@H]12 [Example 12, 4-((1R,3aS,5aR,5bR,7aR,11aS,11bR,13aR,13bR)-3a-((2-carboxy-N-(2-(dimethylamino)ethyl)acetamido)methyl)-5a,5b,8,8,11a-pentamethyl-1-(prop-1-en-2-yl)-2,3,3a,4,5,5a,5b,6,7,7a,8,11,11a,11b,12,13,13a,13b-octadecahydro-1H-cyclopenta[a]chrysen-9-yl)benzoic acid] | < 100 nM | – |
| C=C(C)[C@@H]1CC[C@]2(CNCCC(=O)N3CCOCC3)CC[C@]3(C)[C@H](CC[C@@H]4[C@@]5(C)CC=C(c6ccc(C(=O)O)cc6)C(C)(C)[C@@H]5CC[C@]43C)[C@@H]12 [Example 107, 4-((1R,3aS,5aR,5bR,7aR,11aS,11bR,13aR,13bR)-5a,5b,8,8,11a-pentamethyl-3a-((3-morpholino-3-oxopropylamino)methyl)-1-(prop-1-en-2-yl)-2,3,3a,4,5,5a,5b,6,7,7a,8,11,11a,11b,12,13,13a,13b-octadecahydro-1H-cyclopenta[a]chrysen-9-yl)benzoic acid] | < 100 nM | – |
| C=C(C)[C@@H]1CC[C@]2(CNCCC(=O)N3CCn4c(nnc4C(F)(F)F)C3)CC[C@]3(C)[C@H](CC[C@@H]4[C@@]5(C)CC=C(c6ccc(C(=O)O)cc6)C(C)(C)[C@@H]5CC[C@]43C)[C@@H]12 [Example 119] | < 100 nM | – |
| C=C(C)[C@@H]1CC[C@]2(CNC(=O)[C@@H]3CCCN3C)CC[C@]3(C)[C@H](CC[C@@H]4[C@@]5(C)CC=C(c6ccc(C(=O)O)cc6)C(C)(C)[C@@H]5CC[C@]43C)[C@@H]12 [Example 150, 4-((1R,3aS,5aR,5bR,7aR,11aS,11bR,13aR,13bR)-5a,5b,8,8,11a-pentamethyl-3a-(((S)-1-methylpyrrolidine-2-carboxamido)methyl)-1-(prop-1-en-2-yl)-2,3,3a,4,5,5a,5b,6,7,7a,8,11,11a,11b,12,13,13a,13b-octadecahydro-1H-cyclopenta[a]chrysen-9-yl)benzoic acid] | < 100 nM | – |
| C=C(C)[C@@H]1CC[C@]2(CNCCCN3CCN(C)CC3)CC[C@]3(C)[C@H](CC[C@@H]4[C@@]5(C)CC=C(c6ccc(C(=O)O)cc6)C(C)(C)[C@@H]5CC[C@]43C)[C@@H]12 [Example 56, 4-((1R,3aS,5aR,5bR,7aR,11aS,11bR,13aR,13bR)-5a,5b,8,8,11a-pentamethyl-3a-((3-(4-methylpiperazin-1-yl)propylamino)methyl)-1-(prop-1-en-2-yl)-2,3,3a,4,5,5a,5b,6,7,7a,8,11,11a,11b,12,13,13a,13b-octadecahydro-1H-cyclopenta[a]chrysen-9-yl)benzoic acid] | < 100 nM | – |
